Source: patent US7371721B2, “Use of GLP-2 and related compounds for the treatment, prevention, diagnosis, and prognosis of bone-related disorders and calcium homeostasis related syndromes” (priority 2000, dated 2008)
Values belong to the molecule of their own block, whether it stands above or below them. No end group written: not given here.

Experiments:
[1] = test system: ovariectomized induced bone loss; test: Ovariectomized induced bone loss in aged rats, 6 week study; format: in vivo, female Sprague Dawley rats; details: 6 weeks, in comparison to the untreated controls
Experimental: The following is a protocol suitable to test whether GLP-2A at 250 μg/kg s.c. twice daily can inhibit ovariectomized induced bone loss in aged rats.
• Test articles: GLP-2 analogue (Gly2)GLP-2: […]OH. • Vehicle: 0.5% gelatin/PBS (degassed) Gelatin A: Cat. No. 325910, batch no. 273622 (Unikem, Copenhagen, Denmark). PBS: Dubecco's Phosphate buffered saline (BioWhitaker cat.no.BE17-512F) • Positive control: 17β-estradiol pellet 0.5 mg/60 days release implanted subcutaneous (SE-121 Innovative Research of America) A dose of 250 μg/kg is administered by subcutaneous injections twice daily (10-12 hours apart). The injection site will vary according to the injection scheme. The dose is calculated as follow: the weight ofthe rat in kg=the dose in ml; e.g. 0.301kg=0.30 ml Experimental System: The study is performed in 50 female Sprague Dawley rats in 4 groups each of 12 or 13 rats. Surgery: • The rats are anaesthetized with Hypnorm-Domicum (1 part Hypnorm+1 part Dormicum+2 part sterile dI water. The rats are given 0.15 ml/100 g body weight). Ovariectomy (OVX) or sham operations are performed via a midline incision in the back of the rats. […] The wet weight and length of the small intestine and the colon will be recorded. […] Bones are assessed by PQCT, trabecular strength and histomorphologic analysis.

clinical = details: both sexes, human, in vivo, sc
Experimental: (§1) In these Examples, hematology and serum chemistry including glucose were measured using an auto analyzer (Vitros). Serum […] was measured by IRMA (Coat-A-Count®, DPC, Los Angeles, Calif.). Serum C-telopeptide fragments of collagen type I degradation (S-CTX) were measured by ELISA, Serum CrossLaps™ assay (Osteometer BioTech A/S—Denmark). Serum osteocalcin was determined by ELISA, an assay which determines the N-terminal mid segment of the molecule. Serum insulin and c-peptide were both assessed by RIA (Coat-A-Count® for insulin and Double Antibody C-peptide for c-peptide both DPC, Los Angeles, Calif.). Total GIP was measured using the C-terminally directed antiserum R65, which reacts with the intact GIP (1-42) and the N-terminally truncated metabolite, GIP (3-42) (Krarup T, Holst J J 1984 The heterogeneity of gastric inhibitory polypeptide in porcine and human gastrointestinal mucosa evaluated with five different antisera. Regul Pept 9:35-46. ). GLP-2 was measured with a N-terminal specific antiserum code no. 92160, measuring only GLP-2 with an intact N-terminus. GLP-1 in plasma samples was measured using a RIA assay specific for the C-terminus of the GLP-1 molecule, using standards of synthetic GLP-1 (7-36) amide and antiserum no. […] GLP-1 is measured in Example 1 as a marker for the effect of the tested materials on GLP-2 levels. […]

S-CTX (bone resorption) = test: Serum S-CTX (Serum CrossLaps ELISA) as marker of bone resorption in human subjects; format: in vivo
Experimental: as §1

GIP = test: Total GIP level (antiserum R65); format: in vivo, human; details: oral 75 g fructose
Experimental: as §1

GLP-1 = test: Plasma GLP-1 level (RIA), in Examples 1 and 2 as marker for GLP-2; format: in vivo, human; details: after 2 hours, compared to the baseline of 100% at T0; oral 75 g fructose
Experimental: as §1

[2] = test system: fractures in postmenopausal osteoporosis; details: cited from earlier work
[3] = in vivo; cited from earlier work

Molecule: C[C@]12CC[C@@H]3c4ccc(O)cc4CC[C@H]3[C@@H]1CC[C@@H]2O [17β-estradiol]
protection against bone density loss following the OVX procedure [1]: protected against bone density loss

Tmax (clinical): 1 h
Molecule: CC[C@H](C)[C@H](NC(=O)[C@H](Cc1ccccc1)NC(=O)[C@H](CC(=O)O)NC(=O)[C@H](CCCNC(=N)N)NC(=O)[C@H](C)NC(=O)[C@H](C)NC(=O)[C@H](CC(C)C)NC(=O)[C@H](CC(N)=O)NC(=O)[C@H](CC(=O)O)NC(=O)[C@H](CC(C)C)NC(=O)[C@@H](NC(=O)[C@@H](NC(=O)[C@H](CC(N)=O)NC(=O)[C@H](CCSC)NC(=O)[C@H](CCC(=O)O)NC(=O)[C@H](CC(=O)O)NC(=O)[C@H](CO)NC(=O)[C@H](Cc1ccccc1)NC(=O)[C@H](CO)NC(=O)CNC(=O)[C@H](CC(=O)O)NC(=O)[C@H](C)NC(=O)[C@@H](N)Cc1c[nH]cn1)[C@@H](C)O)[C@@H](C)CC)C(=O)N[C@@H](CC(N)=O)C(=O)N[C@@H](Cc1c[nH]c2ccccc12)C(=O)N[C@@H](CC(C)C)C(=O)N[C@H](C(=O)N[C@@H](CCC(N)=O)C(=O)N[C@H](C(=O)N[C@@H](CCCCN)C(=O)N[C@H](C(=O)N[C@H](C(=O)N[C@@H](CC(=O)O)C(=O)O)[C@@H](C)O)[C@@H](C)CC)[C@@H](C)O)[C@@H](C)CC [GLP-2]
reduction in S-CTX (S-CTX (bone resorption); after 3 hours, subcutaneous bolus injection of 400 μg, healthy women and men): 35%

Molecule: O=C(CO)[C@@H](O)[C@H](O)[C@H](O)CO [Oral fructose, fructose]
reduction in S-CTX (S-CTX (bone resorption); after 2 hours, oral 75 g fructose in 300 ml water, fasted healthy women and men): 36%
level of GIP (GIP): almost maintained at baseline
level of GLP-2 (measured as GLP-1) (GLP-1): 220%

Molecule: CC[C@H](C)[C@H](NC(=O)[C@H](CCC(=O)O)NC(=O)[C@H](CO)NC(=O)[C@@H](NC(=O)[C@@H](N)CO)C(C)C)C(=O)N[C@@H](CCC(N)=O)C(=O)N[C@@H](CC(C)C)C(=O)N[C@@H](CCSC)C(=O)N[C@@H](Cc1cnc[nH]1)C(=O)N[C@@H](CC(N)=O)C(=O)N[C@@H](CC(C)C)C(=O)NCC(=O)N[C@@H](CCCCN)C(=O)N[C@@H](Cc1cnc[nH]1)C(=O)N[C@@H](CC(C)C)C(=O)N[C@@H](CC(N)=O)C(=O)N[C@@H](CO)C(=O)N[C@@H](CCSC)C(=O)N[C@@H](CCC(=O)O)C(=O)N[C@@H](CCCN=C(N)N)C(=O)N[C@H](C(=O)N[C@@H](CCC(=O)O)C(=O)N[C@@H](Cc1c[nH]c2ccccc12)C(=O)N[C@@H](CC(C)C)C(=O)N[C@@H](CCCN=C(N)N)C(=O)N[C@@H](CCCCN)C(=O)N[C@@H](CCCCN)C(=O)N[C@@H](CC(C)C)C(=O)N[C@@H](CCC(N)=O)C(=O)N[C@@H](CC(=O)O)C(=O)N[C@H](C(=O)N[C@@H](Cc1cnc[nH]1)C(=O)N[C@@H](CC(N)=O)C(=O)N[C@@H](Cc1ccccc1)C(=O)O)C(C)C)C(C)C [teriparatide]
effect on new non-vertebral fractures ([2]; by the end of the 21-month treatment period): −35%
decrease in occurrence of new vertebral fractures ([2]; subcutaneous daily dose 20 μg, Caucasian women (70 years of age)): 65%
reduction of moderate-to-severe fractures ([2]; subcutaneous daily dose 20 μg): 90%
reduction of multiple vertebral fractures ([2]; subcutaneous daily dose 20 μg): 77%

Molecule: His-Gly-Asp-Gly-Ser-Phe-Ser-Asp-Glu-Met-Asn-Thr-Ile-Leu-Asp-Asn-Leu-Ala-Ala-Arg-Asp-Phe-Ile-Asn-Trp-Leu-Ile-Gln-Thr-Lys-Ile-Thr-Asp-OH (HGDGSFSDEMNTILDNLAARDFINWLIQTKITD-OH) [(Gly2)GLP-2]
protection against bone density loss following the OVX procedure [1]: protected against bone density loss

Molecule: PTH: parathyroid hormone treatment (teriparatide and related compounds) discussed in the cited studies
hypercalcemia and related symptoms, share of treated individuals [3]: about 11%
